± gives the standard deviation of the averaged measurements.
What was measured:
Experiment in all cases: level (log10 ratio to DMSO vehicle control); higher = higher biomarker level / cell amount than vehicle control
Details in all cases: in DMSO
[1] = compound: FC(F)(F)C(F)(F)CNCC(F)(F)C(F)(F)F [Bis(1H,1H-perfluoropropyl)amine]
Procedure: (§1)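 BioMAP Diversity Plus panel of 12 human primary cell co-culture systems (3C, 4H, LPS, SAg, BT, BF4T, BE3C, CASM3C, HDF3CGF, KF3CT, MyoF, Mphg). Compounds were added 1 h before stimulation and left for 24 h (MyoF 48 h; BT 72 h for soluble read-outs or 6 d for IgG). Biomarkers were read by ELISA, cytotoxicity by SRB, PBMC viability and proliferation by Alamar Blue. Each well value was divided by the mean of 8 DMSO control wells on the same plate and log10 transformed; duplicate blinded samples were tested at 4 concentrations.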

Nonafluoropentanamide = compound: NC(=O)C(F)(F)C(F)(F)C(F)(F)C(F)(F)F [Nonafluoropentanamide]
Procedure: as §1

[2] = compound: O=C(O)C(F)(F)C(F)(F)C(F)(F)C(F)(F)C(F)(F)C(F)(F)C(F)(F)C(F)(F)C(F)(F)C(F)F [11-H-Perfluoroundecanoic acid]
Procedure: as §1

[3] = compound: O=C(O)C=CC(F)(C(F)(F)F)C(F)(F)F [3-(Perfluoroisopropyl)-2-propenoic acid]
Procedure: as §1

[4] = compound: O=S(=O)(O)C(F)(F)C(F)(F)C(F)(F)C(F)(F)C(F)(F)C(F)(F)C(F)(F)C(F)(F)C(F)(F)C(F)(F)F [Sodium perfluorodecanesulfonate]
Procedure: as §1

Hexafluoroamylene glycol = compound: OCC(F)(F)C(F)(F)C(F)(F)CO [Hexafluoroamylene glycol]
Procedure: as §1

Test System	level (log10) ([1]; 6700 nM)	level (log10) ([1]; 20000 nM)	level (log10) ([1]; 60000 nM)	level (log10) (Nonafluoropentanamide; 6700 nM)	level (log10) (Nonafluoropentanamide; 20000 nM)	level (log10) (Nonafluoropentanamide; 60000 nM)	level (log10) ([2]; 6700 nM)	level (log10) ([2]; 20000 nM)	level (log10) ([3]; 6700 nM)	level (log10) ([3]; 20000 nM)	level (log10) ([3]; 60000 nM)	level (log10) ([4]; 1500 nM)	level (log10) ([4]; 4400 nM)	level (log10) ([4]; 13000 nM)	level (log10) ([4]; 40000 nM)	level (log10) (Hexafluoroamylene glycol; 6700 nM)	level (log10) (Hexafluoroamylene glycol; 20000 nM)	level (log10) (Hexafluoroamylene glycol; 60000 nM)
KF3CT:CD54/ICAM-1	-0.011 ± 0.011	-0.008 ± 0.0085	0.012 ± 0.018	-0.018 ± 0.0071	-0.016 ± 0.0071	-0.025 ± 0.0028	-0.0285 ± 0.039	0.0945 ± 0.0092	0.0075 ± 0.013	0.011 ± 0.018	-0.0025 ± 0.029	0.0035 ± 0.013	0.018 ± 0.023	0.08 ± 0.013	0.09	0.0035 ± 0.021	-0.0155 ± 0.012	-0.013 ± 0.0099
3C:CXCL9/MIG	0.0005 ± 0.013	0.003 ± 0.0071	0.016 ± 0.025	-0.0005 ± 0.0021	-0.0005 ± 0.021	0.0065 ± 0.012	-0.005 ± 0.0085	-0.002	0.004 ± 0.0071	-0.0105 ± 0.0064	0.0045 ± 0.016	-0.005 ± 0.0099	-0.018 ± 0.011	-0.0025 ± 0.0064	0.001 ± 0.0057	-0.006 ± 0.0071	-0.01 ± 0.0057	0.007
HDF3CGF:CD54/ICAM-1	0.026 ± 0.018	0.033 ± 0.0085	0.0405 ± 0.018	-0.0065 ± 0.011	-0.01 ± 0.0085	0 ± 0.0042	-0.058 ± 0.0085	-0.0635 ± 0.0035	-0.0105 ± 0.005	-0.0055 ± 0.015	-0.024 ± 0.016	-0.0145 ± 0.021	-0.031 ± 0.016	-0.037 ± 0.016	-0.063 ± 0.0057	-0.0065 ± 0.016	0.0015 ± 0.012	0.009
4H:VEGFR2	0.0065 ± 0.028	0.0135 ± 0.023	-0.009	-0.0435 ± 0.0078	-0.0135 ± 0.029	-0.015	-0.0245 ± 0.032	0.001 ± 0.047	-0.0145 ± 0.019	0.004 ± 0.05	0.01 ± 0.045	0.003 ± 0.013	-0.03 ± 0.059	-0.02 ± 0.073	0.024 ± 0.047	-0.061 ± 0.023	-0.032 ± 0.013	-0.0255 ± 0.0021
3C:HLA-DR	0.006 ± 0.0028	0.0005 ± 0.021	0.0145 ± 0.03	-0.0095 ± 0.054	-0.007 ± 0.0099	0.003 ± 0.0014	0.0055 ± 0.039	-0.001 ± 0.062	0.0095 ± 0.005	-0.0135 ± 0.022	-0.003 ± 0.028	-0.011 ± 0.011	-0.021 ± 0.02	-0.018 ± 0.0085	-0.0615 ± 0.016	-0.0225 ± 0.0064	-0.0205 ± 0.00071	-0.015 ± 0.0042
CASM3C:M-CSF	0.006 ± 0.016	-0.005 ± 0.016	0.0115 ± 0.028	-0.0105 ± 0.0021	-0.0075 ± 0.019	0.0195 ± 0.035	0.0055 ± 0.0035	-0.004 ± 0.0099	-0.0195 ± 0.0078	-0.0175 ± 0.011	0.009 ± 0.034	0.0465 ± 0.0064	0.0285 ± 0.0035	0.03 ± 0.014	0.14 ± 0.079	-0.0075 ± 0.013	-0.0195 ± 0.028	0.0135 ± 0.044
CASM3C:PAI-I	-0.0075 ± 0.0078	-0.009 ± 0.0042	0.005 ± 0.025	-0.008 ± 0.024	-0.0065 ± 0.0064	0.0105 ± 0.0064	0.001 ± 0.0057	0.006 ± 0.0028	0.006 ± 0.0028	0 ± 0.0057	0.012 ± 0.0057	-0.001 ± 0.0028	-0.0165 ± 0.0064	0.009 ± 0.0057	-0.0055 ± 0.021	-0.0035 ± 0.015	0.017 ± 0.031	0.006 ± 0.0085
CASM3C:HLA-DR	-0.013 ± 0.0057	-0.0105 ± 0.0021	0.015 ± 0.058	-0.0315 ± 0.005	-0.0005 ± 0.036	-0.0275 ± 0.021	-0.0085 ± 0.0021	-0.02 ± 0.0028	-0.033 ± 0.011	-0.0465 ± 0.022	0.0095 ± 0.044	0.0555 ± 0.047	0.007 ± 0.024	0.0505 ± 0.036	0.0855 ± 0.0035	0.014 ± 0.016	0.0095 ± 0.015	-0.0015 ± 0.028

Source: the supplement of paper PMC10331698
